From PMC10687260, “1,3-Diphenylureido hydroxamate as a promising scaffold for generation of potent antimalarial histone deacetylase inhibitors” (Scientific Reports, 2023)

How the values were obtained:
Type in all cases: in vitro ADME
[1] = target: T1, CYP450 2C9 (Homo sapiens, UniProt P11712); assay: CYP450 inhibition in human liver microsomes, 2C9
T1 construct: 10 μM compound was incubated with human liver microsomes and selective marker substrates; from tissue; host or cells: human liver microsomes

[2] = target: T2, CYP450 2D6 (Homo sapiens, UniProt P10635); assay: CYP450 inhibition in human liver microsomes, 2D6
T2 construct: 10 μM compound was incubated with human liver microsomes and selective marker substrates; from tissue; host or cells: human liver microsomes

[3] = target: T3, CYP1A2 (Homo sapiens, UniProt P05177); assay: CYP450 inhibition in human liver microsomes, 1A2
T3 construct: 10 μM compound was incubated with human liver microsomes and selective marker substrates; from tissue; host or cells: human liver microsomes
T3 sequence (P05177 1-516): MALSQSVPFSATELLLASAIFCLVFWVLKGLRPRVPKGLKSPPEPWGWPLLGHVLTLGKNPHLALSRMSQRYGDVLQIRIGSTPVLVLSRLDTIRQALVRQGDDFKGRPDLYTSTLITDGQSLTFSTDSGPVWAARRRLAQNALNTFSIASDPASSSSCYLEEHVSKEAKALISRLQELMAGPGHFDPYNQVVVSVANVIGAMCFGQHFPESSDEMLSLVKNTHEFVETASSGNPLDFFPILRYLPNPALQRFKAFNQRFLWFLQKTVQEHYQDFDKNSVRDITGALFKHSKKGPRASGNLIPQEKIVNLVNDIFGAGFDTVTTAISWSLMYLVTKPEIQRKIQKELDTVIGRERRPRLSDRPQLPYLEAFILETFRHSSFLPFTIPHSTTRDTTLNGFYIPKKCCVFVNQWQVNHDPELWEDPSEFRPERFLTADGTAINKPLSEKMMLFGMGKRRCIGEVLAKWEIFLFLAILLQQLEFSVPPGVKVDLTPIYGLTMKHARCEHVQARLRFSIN

T1 sequence (P11712 whole entry): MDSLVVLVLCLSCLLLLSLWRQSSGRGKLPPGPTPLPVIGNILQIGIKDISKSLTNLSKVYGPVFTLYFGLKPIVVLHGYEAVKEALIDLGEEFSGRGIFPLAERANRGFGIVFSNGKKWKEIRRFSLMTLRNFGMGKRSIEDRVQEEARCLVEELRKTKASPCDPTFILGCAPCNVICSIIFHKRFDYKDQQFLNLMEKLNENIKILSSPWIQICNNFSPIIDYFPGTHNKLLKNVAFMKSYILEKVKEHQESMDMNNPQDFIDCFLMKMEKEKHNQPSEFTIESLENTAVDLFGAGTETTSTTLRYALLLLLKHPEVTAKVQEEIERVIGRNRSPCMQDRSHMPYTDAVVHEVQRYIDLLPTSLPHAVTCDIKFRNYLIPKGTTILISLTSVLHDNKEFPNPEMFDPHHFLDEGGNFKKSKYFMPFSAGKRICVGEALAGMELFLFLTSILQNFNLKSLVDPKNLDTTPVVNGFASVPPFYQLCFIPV
T2 sequence (P10635 whole entry): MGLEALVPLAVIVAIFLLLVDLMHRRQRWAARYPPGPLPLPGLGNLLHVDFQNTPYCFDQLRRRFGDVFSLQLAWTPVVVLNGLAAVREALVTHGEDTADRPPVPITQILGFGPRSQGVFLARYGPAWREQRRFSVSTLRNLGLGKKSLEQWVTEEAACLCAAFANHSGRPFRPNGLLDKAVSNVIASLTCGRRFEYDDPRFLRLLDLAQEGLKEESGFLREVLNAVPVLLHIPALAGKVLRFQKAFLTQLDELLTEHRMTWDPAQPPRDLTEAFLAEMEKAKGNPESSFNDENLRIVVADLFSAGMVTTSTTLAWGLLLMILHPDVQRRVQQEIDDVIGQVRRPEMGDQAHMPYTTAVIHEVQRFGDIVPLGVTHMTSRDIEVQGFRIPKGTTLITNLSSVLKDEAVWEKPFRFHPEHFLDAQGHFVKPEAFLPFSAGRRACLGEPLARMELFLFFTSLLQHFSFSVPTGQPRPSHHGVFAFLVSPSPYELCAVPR

With `Cc1nc2c([nH]1)c(=O)n(C)c(=O)n2Cc1ccco1` [Furafylline, reference compound] the “CYP450% inhibition 2C9” value ([1]; Tested concentration: 40 µM) was “* (Inhibition < 10%)” and the “CYP450% inhibition 2D6” value ([2]; Tested concentration: 40 µM) was “* (Inhibition < 10%)”.

For `CC(=O)N1CCN(c2ccc(OCC3COC(Cn4ccnc4)(c4ccc(Cl)cc4Cl)O3)cc2)CC1` (stereo not shown) [Ketoconazole, reference compound], the “CYP450% inhibition 2C9” value ([1]; Tested concentration: 1.0 µM) was “* (Inhibition < 10%)” and the “CYP450% inhibition 1A2” value ([3]; Tested concentration: 1.0 µM) was “* (Inhibition < 10%)”.

In the case of `C=C[C@H]1C[N@@]2CC[C@H]1C[C@@H]2[C@@H](O)c1ccnc2ccc(OC)cc12` [Quinidine, reference compound], the “CYP450% inhibition @ 10 µM 2C9” value ([1]; 10 µM) was “* (Inhibition < 10%)”, the “CYP450% inhibition @ 10 µM 1A2” value ([3]; 10 µM) was “* (Inhibition < 10%)” and the “CYP450% inhibition @ 10 µM 2D6” value ([2]; 10 µM) was 89%.
